Experimental data from PubChem BioAssay (NCI).
“And” between values parts separate entries of the source, which are not always exact repeats. Equal values may be shown once.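 Step 1: Grow cells in 96-well plates. Step 2: Expose to compound for 48 hours at 5 concentrations. Step 3: Interpolate endpoints linearly; if unreached, use highest concentration. Here, GI50 denotes the concentration required for 50% inhibition of growth. TGI: concentration producing complete growth inhibition.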

Legend:
Assay in all cases: NCI-60 cell line screen, 48 h
SN12C renal = tested on: SN12C renal
SW-620 colon = tested on: SW-620 colon
NCI-H522 lung = tested on: NCI-H522 lung
LOX IMVI melanoma = tested on: LOX IMVI melanoma
HCT-116 colon = tested on: HCT-116 colon
SNB-19 CNS = tested on: SNB-19 CNS
HL-60(TB) leukemia = tested on: HL-60(TB) leukemia
NCI-H23 lung = tested on: NCI-H23 lung
HCT-15 colon = tested on: HCT-15 colon

Compound | TGI (SN12C renal) | TGI (SW-620 colon) | TGI (NCI-H522 lung) [µM] | TGI (LOX IMVI melanoma) | TGI (HCT-116 colon) | TGI (SNB-19 CNS) [µM] | TGI (HL-60(TB) leukemia) | TGI (NCI-H23 lung) | TGI (HCT-15 colon) | GI50 (SN12C renal) [µM] | GI50 (SW-620 colon) | GI50 (NCI-H522 lung) [µM] | GI50 (LOX IMVI melanoma) [µM] | GI50 (HCT-116 colon) [µM] | GI50 (SNB-19 CNS) [µM] | GI50 (HL-60(TB) leukemia) [µM] | GI50 (NCI-H23 lung) [µM] | GI50 (HCT-15 colon) [µM]
CCCCCCNC(=O)C1=C(C)NC(C)=C(C(=O)NCCCCCC)C1 | > 100 µM | > 100 µM | > 100 | > 100 µM | > 100 µM | > 100 | > 100 µM | > 100 µM | > 100 µM | – | – | – | – | – | – | – | – | –
COc1ccc(/C=C/c2cc(OC)c(OC)c(OC)c2)cc1NC(=O)/C=C/c1ccc(F)cc1 | > 100 µM | > 100 µM | 5.73 | > 100 µM | > 100 µM | > 100 | 7.47 µM | > 100 µM | > 100 µM | 5.56 | 2.85 µM | 1.87 | 6.15 | 3.98 | 4.37 | 1.8 | 3.41 | 4
Cc1nn(C(=O)c2ccccc2O)c2c1C(c1ccccc1)SC(N)=N2 (stereo unspecified) | > 10 µM | > 10 µM | > 10 | > 10 µM | > 10 µM | > 10 | 3.58 µM | > 10 µM | > 10 µM | – | – | – | – | – | – | – | – | –
O=C(O)C1CCc2ccc3ccccc3c2C1c1cccc2ccccc12 (stereo unspecified) | 59.3 µM | > 100 µM | 60 | 36.3 µM | 28.9 µM | 34.2 | 62 µM | – | 45.9 µM | – | – | – | – | – | – | – | – | –
COc1cc(/C=C/c2cc(C(F)(F)F)[nH]c(=O)n2)ccc1OCc1ccccc1F | 32.6 µM | 28.3 µM | 20.4 | 22 µM | 19.6 µM | 30.1 | 68.2 µM | 31.9 µM | 28.3 µM | 7.04 | 7.97 µM | 5.62 | 8.57 | 7.12 | 11.5 | 9.25 | 10.5 | 5.22
COC1=CC23C=CC1[C@@H](c1ccccc1)C2=C(C)C(=O)N3C(=O)NC1CCCCC1 (stereo partly specified) | – | 47.8 µM | 41.3 | 31.2 µM | 28.3 µM | > 100 | > 100 µM | 57.5 µM | 29.1 µM | – | – | – | – | – | – | – | – | –
CC1=CSC2=NC(c3ccc(Cl)c(Cl)c3)=CC(c3ccc(Cl)cc3)N12 (stereo unspecified) | > 100 µM | > 100 µM | > 100 | > 100 µM | > 100 µM | > 100 | > 100 µM | > 100 µM | > 100 µM | > 100 | > 100 µM | > 100 | > 100 | > 100 | > 100 | > 100 | > 100 | > 100
O=C(Oc1ccc(O)c2c(=O)n3c(cc12)[nH]c1ccccc13)c1ccccc1 | 54 µM | 26.9 µM | 41.2 | 20.1 µM | 23.5 µM | > 100 | 51.7 µM | 37.7 µM | 28.2 µM | 12.6 | 5.1 µM | 6.21 | 4.77 | 11.3 | 37.7 | 21.6 | 16 | 12.9
CCN(CC)CCCCC1CCN(CC(=O)N2CC(C)C(=O)Nc3ccccc32)CC1 (stereo unspecified) | > 100 µM | > 100 µM | – | > 100 µM | > 100 µM | > 100 | > 100 µM | > 100 µM | > 100 µM | – | – | – | – | – | – | – | – | –
CC1=C2C(O)C(C(C)CO)C(O)CC2(C)C(O)CC1 (stereo unspecified) | > 100 µM | > 100 µM | > 100 | > 100 µM | > 100 µM | > 100 | > 100 µM | – | > 100 µM | – | – | – | – | – | – | – | – | –
O=C(Nc1ccc(Cl)cc1)Nc1ccc(Cl)c(Cl)c1 | > 100 µM | > 100 µM | > 100 | > 100 µM | > 100 µM | > 100 | 7.69 µM | > 100 µM | 62.5 µM | 3.42 | 3.95 µM | 4.15 | 3.39 | 3.5 | 4.01 | 2.84 | 3.34 | 2.92
S=C(Nc1ccc(-c2nc3ccccc3[nH]2)cc1)NC1CCCCC1 | 55 µM | – | 35.3 | – | 39.5 µM | – | – | 68.3 µM | 37.9 µM | 25 | 31.6 µM | 12.9 | 15.4 | 20.7 | 46.6 | 46.9 | 23.2 | 16.2
O=C1C=C(c2c(O)ccc3ccccc23)c2ccccc2C1=O | 12.2 µM | 5.21 µM | – | 4.42 µM | 8.06 µM | 22.4 | 15.3 µM | 4.92 µM | 13.1 µM | – | – | – | – | – | – | – | – | –
COc1cc(-c2nc3ccc(C)cc3[nH]2)ccc1OCC(=O)N=Nc1c(O)[nH]c2ccccc12 | 3.19 µM | 2.37 µM | – | 1.29 µM | 1.66 µM | 3.51 | – | 3.48 µM | > 100 µM | 1.68 | 0.769 µM | – | 0.339 | 0.442 | 1.83 | – | 1.81 | 4.18
Cc1c(CCCl)c(=O)n2c([nH]c3ccccc32)c1C#N | 2.66 µM | 2.27 µM | – | 2.02 µM | 1.93 µM | – | > 10 µM | 3.49 µM | 2.93 µM | – | – | – | – | – | – | – | – | –
CC1(C)C=CC[C@]2(C)[C@H]3CC[C@@H]4[C@H]5[C@H](C(=O)/C=C/c6cccnc6)CC[C@]5(CO)CC[C@@]4(C)[C@]3(C)CC[C@@H]12 | 2.45 µM | 2.31 µM | 2.74 | – | 2.32 µM | 2.84 | 1.89 µM | – | – | 1.07 | 1 µM | 1.19 | – | 1.05 | 1.49 | 0.304 | – | –
C=CCn1c(C)nc2cc(Nc3nc(Nc4ccc5nc(C)n(CC=C)c5c4)c4ccccc4n3)ccc21 | – | – | 3.27 | 0.466 µM | – | – | 4.13 µM | 4.57 µM | – | – | – | 1.43 | 0.208 | – | – | 1.7 | 1.88 | –
CC(=O)NC1=N/C(=C/c2cc([N+](=O)[O-])ccc2O)CN1C | > 100 µM | > 100 µM | – | > 100 µM | > 100 µM | > 100 | > 100 µM | > 100 µM | > 100 µM | – | – | – | – | – | – | – | – | –
C[CH2][Sn]1([CH2]C)[O]C(=O)[O][Sn]([CH2]C)([CH2]C)[O]1 | > 100 µM | 29.2 µM | – | 33 µM | > 57.7 µM | 33.6 | 81.7 µM | 35 µM | > 54.4 µM | > 63.4 | 15.2 µM | – | 17.2 | > 42.9 | 18.4 | 26.4 | 17.9 | 25.3
CCN(CC)CCNc1c(OC)cc(C)c2sc3ccccc3c(=O)c12 | 9.92 µM | 17.9 µM | 20 | – | 16.3 µM | 26.6 | 18.9 µM | 29 µM | 14.4 µM | – | – | – | – | – | – | – | – | –
O=C1c2cc(Br)ccc2-c2c1c1ccc([N+](=O)[O-])cc1c(=O)n2CCCCl | 2.2 µM | > 100 µM | 5.38 | 5.12 µM | 5.94 µM | 7.19 | – | 8.04 µM | > 100 µM | 0.0347 | 0.0533 µM | 0.0636 | < 0.0248 | 1.05 | < 0.01 | – | 1.54 | 1.41
Nc1c(C(=O)c2ccccc2)sc2nc(-c3cccs3)ccc12 | 27.4 µM | 11.1 µM | 0.0567 | 15.3 µM | 1.96 µM | 10.3 | – | 10.1 µM | 10.4 µM | 0.692 | 0.0734 µM | 0.0178 | 0.378 | 0.0533 | 0.432 | – | 0.331 | 0.0552
CN(C)c1ccc(/C=C2\Oc3cc(O)ccc3C2=O)cc1 | > 100 µM | > 100 µM | > 100 | – | > 100 µM | > 100 | > 100 µM | > 100 µM | > 100 µM | – | – | – | – | – | – | – | – | –
COc1cc([C@H](C)c2ccc3ccccc3c2)cc(OC)c1OC | > 100 µM | > 100 µM | 28.3 | > 100 µM | – | > 100 | 0.745 µM | > 100 µM | > 100 µM | 1.08 | 0.0974 µM | 0.376 | 1.03 | – | 0.601 | 0.184 | 0.696 | 0.311
COc1cc(C2c3cc4c(cc3[C@@H](Nc3ccc(C(=O)O)cc3)C3COC(=O)[C@H]23)OCO4)cc(OC)c1O (stereo partly specified) | 75.6 µM and > 17.5 µM | 62.4 µM and > 17.5 µM | – | 18.7 µM and 5.1 µM | 43.9 µM and > 17.5 µM | > 100 | 22.8 µM and 16.7 µM | 31.1 µM and > 17.5 µM | 32.8 µM and > 17.5 µM | – | 11.9 µM and 3.89 µM | – | – | – | – | – | – | –
CC[N+](CCCCCCCCCC[N+](CC)(c1ccccn1)c1ccccn1)(c1ccccn1)c1ccccn1 | 11 µM | 15.6 µM | – | 4.29 µM | > 100 µM | 27.3 | 2.93 µM | 17.9 µM | 18.8 µM | 0.431 | 2.14 µM | – | 1.5 | 0.851 | 0.761 | 0.554 | 0.696 | 3.2
